Experimental data taken from patent publication US4162253A, “Acaricidal agents” (Pfizer Inc., priority 1975, dated 1979).

Test system: Adult Boophilus microplus
Assay: Topical application test on fully engorged adult Boophilus microplus ticks; overall reduction in anticipated reproduction (eggs laid and hatching)
Assay type: in vivo
Conditions: Rhipicephalus microplus, read-out: In Vitro Activity (topical application) vs. Adult Boophilus microplus % Effect; for inhibition at 0.5 µg/tick: 0.5 μg/tick; for inhibition at 1 µg/tick: 1 μg/tick; for inhibition at 2 µg/tick: 2 μg/tick; for inhibition at 4 µg/tick: 4 μg/tick; for inhibition at 8 µg/tick: 8 μg/tick; for inhibition at 10 µg/tick: 10 μg/tick
Experimental: In one test, five freshly collected, fully engorged Boophilus microplus adult ticks are used for each acaricidal compound. Using a micro-pipette, 10 micro-liters of a solution containing 10 micro-grams of the acaricidal compound in ethanol or acetone, is applied to the dorsal surface of each of the ticks. The treated ticks are placed in weighted 1"×2" glass vials, weighted and stored at 26° C. and 80% relative humidity in plastic boxes for two weeks. The ticks are then removed from the vials and the vials weighted to give the weight of eggs laid by the ticks. Any reduction in the egg laying of the treated ticks is caculated as a percentage of the eggs laid by untreated control ticks.
The eggs are returned to the incubator for a further 3 weeks after which time the percentage of eggs hatching is estimated.
The percentage effect is calculated as the overall reduction in the anticipated reproduction of the ticks using the weight of eggs laid and the percentage of eggs hatching.
The test may be repeated using smaller amounts of the acaricidal compound for sufficiently active compounds.
The activity of many of the compounds of the Examples detailed hereinafter against the tick Boophilus microplus has been determined.

Row | SMILES | inhibition at 0.5 µg/tick | inhibition at 1 µg/tick | inhibition at 2 µg/tick | inhibition at 4 µg/tick | inhibition at 8 µg/tick | inhibition at 10 µg/tick
1 | CCCCCCCCCCCCCCCC[N+]1=C2SC(C)=C(CC)N2CCC1 [Example 1, 8-cetyl-3-ethyl-2-methyl-6,7-dihydro[5H]thiazolo[3,2-a]pyrimidinium bromide] | 24% | 59% | 99% | 100% | 100% | 100%
2 | CCCCCCCCCCCCCCC[N+]1=C2SC=C(c3ccccc3)N2CCC1 [Example 2] | – | 16% | 67% | 77% | 100% | 100%
3 | CCCCCCCCCCCCCCCC[N+]1=C2SC=C(c3ccccc3)N2CCC1 [Example 3] | 2% | 13% | 26% | 90% | 97% | 100%
4 | CCCCCCCCCCCCCC[N+]1=C2SC(C)=C(CC)N2CCC1 [Example 4] | – | – | 12% | 75% | 100% | 83%
5 | CCCCCCCCCCCCCC[N+]1=C2SC=C(C)N2CCC1 [Example 5] | – | 0% | 4% | 32% | 63% | 65%
6 | CCCCCCCCCCCCCCCCC[N+]1=C2SC=C(c3ccccc3)N2CCC1 [Example 6] | – | 7% | 43% | 79% | 98% | 100%
7 | CCCCCCCCCCCCCCCC[N+]1=C2SC(C)=C(c3ccccc3)N2CCC1 [Example 7, 8-cetyl, 2-methyl-3-phenyl-6,7-dihydro[5H]thiazolo[3,2-a]pyrimidinium bromide] | 31% | 54% | 92% | 99% | 100% | 100%
8 | CCCCCCCCCCCCCCCCCC[N+]1=C2SC=C(C)N2CCC1 [Example 8] | – | – | – | – | – | 26%
9 | CCCCCCCCCCCCCCCCC[N+]1=C2SC=C(C)N2CCC1 [Example 9] | – | – | – | – | – | 42%
10 | CCCCCCCCCCCCCCC[N+]1=C2SC=C(C)N2CCC1 [Example 10] | – | – | – | – | – | 72%
11 | CCCCCCCCCCCCCCC[N+]1=C2SC(C)=C(c3ccccc3)N2CCC1 [Example 11] | 30% | 36% | 73% | 100% | 100% | 100%
12 | CCCCCCCCCCCCCCCCCC[N+]1=C2SC(C)=C(c3ccccc3)N2CCC1 [Example 12] | 16% | 19% | 22% | 38% | 87% | 100%
13 | CCCCCCCCCCCCCC[N+]1=C2SC(C)=C(c3ccccc3)N2CCC1 [Example 13] | 0% | 6% | 21% | 99.4% | 99.9% | 100%
14 | CCCCCCCCCCCCCCCCCC[N+]1=C2SC=C(c3ccccc3)N2CCC1 [Example 14] | – | – | – | – | – | 47%
15 | CCCCCCCCCCCCCCCCC[N+]1=C2SC(C)=C(c3ccccc3)N2CCC1 [Example 15] | 11% | 9% | 29% | 99.9% | 100% | 100%
16 | CCCCCCCCCCCCCCCC[N+]1=C2SC(c3ccccc3)=CN2CCC1 [Example 16] | – | – | – | – | – | 33%
17 | CCCCCCCCCCCCCCCC[N+]1=C2SC=C(C)N2CCC1 [Example 19] | – | – | 0% | 9% | 28% | 49%
18 | CCCCCCCCCCCCCCCC[N+]1=C2SC=C(C)N2CCCC1 [Example 20, 9-cetyl-3-methyl-5,6,7,8-tetrahydro-thiazolo[3,2-a][1,3]diazepinium bromide] | 0% | 29% | 67% | 99% | 100% | 100%
19 | CCCCCCCCCCCCCCCC[N+]1=C2SC=C(c3ccccc3)N2CCCC1 [Example 21] | – | 0% | 83% | 98% | 100% | 100%

Row | SMILES | inhibition at 0.5 µg/tick | inhibition at 1 µg/tick | inhibition at 2 µg/tick | inhibition at 4 µg/tick | inhibition at 8 µg/tick | inhibition at 10 µg/tick
20 | CCCCCCCCCCCCCCCCCC[N+]1=C2SC=C(c3ccccc3)N2CCCC1 [Example 22] | – | – | – | – | – | 57%
21 | CCCCCCCCCCCCCCCC[N+]1=C2SC(C)=C(c3ccccc3)N2CCCC1 [Example 23, 9-hexadecyl-2-methyl-3-phenyl-5,6,7,8-tetrahydro-thiazolo[3,2-a][1,3]diazepinium bromide] | 6% | 60% | 98% | 100% | 100% | 100%
22 | CCCCCCCCCCCCCCC[N+]1=C2SC=C(C)N2CCCC1 [Example 24] | 13% | 48% | 70% | 97% | 100% | 100%
23 | CCCCCCCCCCCCCCCCCC[N+]1=C2SC=C(C)N2CCCC1 [Example 25] | – | 20% | 40% | 82% | 78% | 98%
24 | CCCCCCCCCCCCCCC[N+]1=C2SC=C(c3ccccc3)N2CCCC1 [Example 26, 9-Pentadecyl-3-phenyl-5,6,7,8-tetrahydrothiazolo[3,2-a][1,3]diazepinium bromide] | 14% | 12% | 43% | 61% | 92% | 99%
25 | CCCCCCCCCCCCC[N+]1=C2SC=C(C)N2CCCC1 [Example 27] | 40% | 38% | 55% | 63% | 75% | 86%
26 | CCCCCCCCCCCCCC[N+]1=C2SC=C(C)N2CCCC1 [Example 28] | – | 13% | 52% | 74% | 83% | 100%
27 | CCCCCCCCCCCCCC[N+]1=C2SC=C(c3ccccc3)N2CCCC1 [Example 29] | – | 19% | 11% | 55% | 100% | 100%
28 | CCCCCCCCCCCCCCCCC[N+]1=C2SC=C(C)N2CCCC1 [Example 30] | – | 13% | 47% | 56% | 95% | 100%
29 | CCCCCCCCCCCCC[N+]1=C2SC=C(c3ccccc3)N2CCCC1 [Example 31] | – | – | – | 0% | 52% | 100%
30 | CCCCCCCCCCCCCCCCC[N+]1=C2SC=C(c3ccccc3)N2CCCC1 [Example 32] | 0% | 12% | 66% | 94% | 95% | 100%
31 | CCCCCCCCCCCCCCCC[N+]1=C2SC(c3ccccc3)=CN2CCCC1 [Example 34] | – | – | – | – | – | 32%
32 | CCCCCCCCCCCCCCCC[N+]1=C2SC3=C(CCCC3)N2CCCC1 [Example 35, 9-hexadecyl-2,3-tetramethylene-5,6,7,8-tetrahydrothiazolo[3,2-a][1,3] diazepinium bromide] | 0% | 8% | 13% | 70% | 100% | 100%
33 | CCCCCCCCCCCCCCCC[N+]1=C2SC=CN2CCCC1 [Example 36] | – | – | – | – | – | 26%
34 | CCCCCCCCCCCC[N+]1=C2SC=C(c3ccccc3)N2CCCC1 [Example 37] | – | – | – | – | – | 87%
35 | CCCCCCCCCCCC[N+]1=C2SC=C(C)N2CCCC1 [Example 38] | – | – | – | – | – | 30%
36 | CCCCCCCCCCCCCCCC[N+]1=C2SC=C(c3ccc(F)cc3)N2CCCC1 [Example 41] | 5% | 18% | 18% | 16% | 43% | 92%
37 | CCCCCCCCCCCCCCCC[N+]1=C2SC(C)=C(c3ccccc3)N2CC1 [Example 42, 7-cetyl-2-methyl-3-phenyl--5,6-dihydro-imidazo[2,1-b]thiazolium bromide] | 6% | 52% | 50% | 90% | 100% | 100%
